Measured values from ChEMBL document CHEMBL2429821, “A Casein kinase 1/Checkpoint kinase 1 pyrazolo-pyridine protein kinase inhibitor as novel activator of the p53 pathway” (Bioorg Med Chem Lett, 2013).

Experiments:
A-375 [1] = assay: Cell cycle arrest in human A375 cells assessed as accumulation at G2-M phase at 80 uM after 48 hrs by FACS flow cytometric analysis (reference value: 17.3%); type: functional
A-375 [2] = assay: Cell cycle arrest in human A375 cells assessed as accumulation at S phase at 80 uM after 48 hrs by FACS flow cytometric analysis (reference value: 25.1%); type: functional
A-375 [3] = assay: Cell cycle arrest in human A375 cells assessed as accumulation at G0-G1 phase at 80 uM after 48 hrs by FACS flow cytometric analysis (reference value: 55.4%); type: functional
[4] = molecular target: T1, MAP kinase-activated protein kinase 5 (Homo sapiens) (UniProt Q8IW41); assay: Inhibition of human PRAK assessed as residual activity at 1 uM relative to control
T1 sequence (whole entry): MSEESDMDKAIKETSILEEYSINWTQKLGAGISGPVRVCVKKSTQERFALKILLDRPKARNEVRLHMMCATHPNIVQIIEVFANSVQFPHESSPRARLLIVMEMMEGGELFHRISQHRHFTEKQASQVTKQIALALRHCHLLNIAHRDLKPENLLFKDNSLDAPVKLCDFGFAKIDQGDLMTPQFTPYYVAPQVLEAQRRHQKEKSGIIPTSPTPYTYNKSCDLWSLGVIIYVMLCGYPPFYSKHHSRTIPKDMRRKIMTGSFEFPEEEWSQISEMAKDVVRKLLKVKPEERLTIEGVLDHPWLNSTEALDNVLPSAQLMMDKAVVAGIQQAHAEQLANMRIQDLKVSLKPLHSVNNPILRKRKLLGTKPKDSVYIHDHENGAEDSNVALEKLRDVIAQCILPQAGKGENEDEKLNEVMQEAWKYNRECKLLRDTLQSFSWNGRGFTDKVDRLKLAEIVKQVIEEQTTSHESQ

[5] = molecular target: T2, Protein kinase C zeta type (Homo sapiens) (UniProt Q05513); assay: Inhibition of human PKCzeta assessed as residual activity at 1 uM relative to control
T2 sequence (whole entry): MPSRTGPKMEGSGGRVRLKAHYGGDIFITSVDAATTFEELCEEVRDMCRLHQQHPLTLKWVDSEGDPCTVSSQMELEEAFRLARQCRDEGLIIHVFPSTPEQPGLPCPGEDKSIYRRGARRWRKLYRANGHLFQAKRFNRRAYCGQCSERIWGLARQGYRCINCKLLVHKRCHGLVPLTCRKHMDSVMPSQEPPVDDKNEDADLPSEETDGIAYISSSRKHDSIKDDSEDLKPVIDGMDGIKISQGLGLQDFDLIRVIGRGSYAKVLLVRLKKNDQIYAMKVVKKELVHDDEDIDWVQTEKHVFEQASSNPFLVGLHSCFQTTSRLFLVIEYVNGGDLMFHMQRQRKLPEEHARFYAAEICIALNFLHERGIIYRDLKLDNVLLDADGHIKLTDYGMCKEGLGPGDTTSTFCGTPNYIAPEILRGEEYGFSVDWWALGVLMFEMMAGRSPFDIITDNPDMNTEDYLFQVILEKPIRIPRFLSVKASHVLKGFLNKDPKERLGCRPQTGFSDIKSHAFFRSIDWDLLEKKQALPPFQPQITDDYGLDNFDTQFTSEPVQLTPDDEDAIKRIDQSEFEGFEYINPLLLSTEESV

[6] = molecular target: Serine/threonine-protein kinase pim-2 (Homo sapiens) (UniProt Q9P1W9); assay: Inhibition of human PIM2 assessed as residual activity at 1 uM relative to control
[7] = molecular target: MAP kinase-activated protein kinase 2 (Homo sapiens) (UniProt P49137); assay: Inhibition of human MAPKAPK2 assessed as residual activity at 1 uM relative to control
[8] = molecular target: Mitogen-activated protein kinase 1 (Homo sapiens) (UniProt P28482); assay: Inhibition of human MAPK2 assessed as residual activity at 1 uM relative to control
[9] = molecular target: Mitogen-activated protein kinase 8 (Homo sapiens) (UniProt P45983); assay: Inhibition of human JNK1 assessed as residual activity at 1 uM relative to control
[10] = molecular target: Tyrosine-protein kinase SYK (Homo sapiens) (UniProt P43405); assay: Inhibition of human SYK assessed as residual activity at 10 uM relative to control
[11] = molecular target: Rho-associated protein kinase 2 (Rattus norvegicus) (UniProt Q62868); assay: Inhibition of rat ROCK2 assessed as residual activity at 10 uM relative to control
[12] = molecular target: Serine/threonine-protein kinase Nek6 (Homo sapiens) (UniProt Q9HC98); assay: Inhibition of human NEK6 assessed as residual activity at 10 uM relative to control
Homo sapiens = species on record: Homo sapiens; assay: Inhibition of human VEGFR assessed as residual activity at 1 uM relative to control
[13] = molecular target: T3, Serine/threonine-protein kinase Sgk1 (Homo sapiens) (UniProt O00141); assay: Inhibition of human SGK1 assessed as residual activity at 1 uM relative to control
T3 sequence (whole entry): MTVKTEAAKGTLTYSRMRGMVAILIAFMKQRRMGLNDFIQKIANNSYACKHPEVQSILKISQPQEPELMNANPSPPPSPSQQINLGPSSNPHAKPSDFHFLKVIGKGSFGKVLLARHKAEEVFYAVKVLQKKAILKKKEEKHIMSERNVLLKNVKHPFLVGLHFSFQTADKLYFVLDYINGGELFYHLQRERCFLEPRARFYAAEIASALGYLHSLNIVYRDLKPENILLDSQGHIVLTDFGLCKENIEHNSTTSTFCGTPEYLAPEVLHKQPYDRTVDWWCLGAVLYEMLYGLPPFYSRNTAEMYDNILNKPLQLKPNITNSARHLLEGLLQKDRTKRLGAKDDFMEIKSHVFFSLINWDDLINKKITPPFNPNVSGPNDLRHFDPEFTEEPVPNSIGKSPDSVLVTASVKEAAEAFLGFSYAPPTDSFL

[14] = molecular target: T4, Mitogen-activated protein kinase 15 (Homo sapiens) (UniProt Q8TD08); assay: Inhibition of human ERK8 assessed as residual activity at 10 uM relative to control
T4 sequence (whole entry): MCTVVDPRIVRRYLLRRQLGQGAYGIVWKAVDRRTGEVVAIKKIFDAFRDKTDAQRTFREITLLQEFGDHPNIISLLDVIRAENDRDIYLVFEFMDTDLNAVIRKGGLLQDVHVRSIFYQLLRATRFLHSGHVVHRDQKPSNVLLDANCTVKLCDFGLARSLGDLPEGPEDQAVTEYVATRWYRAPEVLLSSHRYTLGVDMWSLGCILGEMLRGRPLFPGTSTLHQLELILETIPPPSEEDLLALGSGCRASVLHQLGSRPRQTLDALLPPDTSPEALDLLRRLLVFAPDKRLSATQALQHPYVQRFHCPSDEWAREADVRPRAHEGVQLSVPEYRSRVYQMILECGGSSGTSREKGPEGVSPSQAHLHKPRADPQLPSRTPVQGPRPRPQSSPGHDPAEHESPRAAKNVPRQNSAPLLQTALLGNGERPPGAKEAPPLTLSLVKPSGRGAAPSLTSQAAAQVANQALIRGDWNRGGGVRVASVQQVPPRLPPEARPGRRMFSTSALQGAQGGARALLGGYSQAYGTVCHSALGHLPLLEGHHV

Chain of Mitogen-activated protein kinase 8 (Homo sapiens) (P45983 whole entry): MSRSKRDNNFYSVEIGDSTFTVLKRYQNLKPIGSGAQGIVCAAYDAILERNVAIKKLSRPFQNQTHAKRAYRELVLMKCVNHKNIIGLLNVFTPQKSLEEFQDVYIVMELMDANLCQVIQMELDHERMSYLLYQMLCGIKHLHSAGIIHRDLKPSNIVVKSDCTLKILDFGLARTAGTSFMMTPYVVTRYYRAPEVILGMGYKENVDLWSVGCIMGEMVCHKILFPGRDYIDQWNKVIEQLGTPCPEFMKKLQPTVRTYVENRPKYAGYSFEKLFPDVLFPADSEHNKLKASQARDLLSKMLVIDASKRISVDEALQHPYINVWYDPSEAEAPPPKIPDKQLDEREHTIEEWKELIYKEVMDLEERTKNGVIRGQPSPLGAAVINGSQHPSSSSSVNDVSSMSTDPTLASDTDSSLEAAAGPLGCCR
Chain of Rho-associated protein kinase 2 (Rattus norvegicus) (Q62868 whole entry, looked up): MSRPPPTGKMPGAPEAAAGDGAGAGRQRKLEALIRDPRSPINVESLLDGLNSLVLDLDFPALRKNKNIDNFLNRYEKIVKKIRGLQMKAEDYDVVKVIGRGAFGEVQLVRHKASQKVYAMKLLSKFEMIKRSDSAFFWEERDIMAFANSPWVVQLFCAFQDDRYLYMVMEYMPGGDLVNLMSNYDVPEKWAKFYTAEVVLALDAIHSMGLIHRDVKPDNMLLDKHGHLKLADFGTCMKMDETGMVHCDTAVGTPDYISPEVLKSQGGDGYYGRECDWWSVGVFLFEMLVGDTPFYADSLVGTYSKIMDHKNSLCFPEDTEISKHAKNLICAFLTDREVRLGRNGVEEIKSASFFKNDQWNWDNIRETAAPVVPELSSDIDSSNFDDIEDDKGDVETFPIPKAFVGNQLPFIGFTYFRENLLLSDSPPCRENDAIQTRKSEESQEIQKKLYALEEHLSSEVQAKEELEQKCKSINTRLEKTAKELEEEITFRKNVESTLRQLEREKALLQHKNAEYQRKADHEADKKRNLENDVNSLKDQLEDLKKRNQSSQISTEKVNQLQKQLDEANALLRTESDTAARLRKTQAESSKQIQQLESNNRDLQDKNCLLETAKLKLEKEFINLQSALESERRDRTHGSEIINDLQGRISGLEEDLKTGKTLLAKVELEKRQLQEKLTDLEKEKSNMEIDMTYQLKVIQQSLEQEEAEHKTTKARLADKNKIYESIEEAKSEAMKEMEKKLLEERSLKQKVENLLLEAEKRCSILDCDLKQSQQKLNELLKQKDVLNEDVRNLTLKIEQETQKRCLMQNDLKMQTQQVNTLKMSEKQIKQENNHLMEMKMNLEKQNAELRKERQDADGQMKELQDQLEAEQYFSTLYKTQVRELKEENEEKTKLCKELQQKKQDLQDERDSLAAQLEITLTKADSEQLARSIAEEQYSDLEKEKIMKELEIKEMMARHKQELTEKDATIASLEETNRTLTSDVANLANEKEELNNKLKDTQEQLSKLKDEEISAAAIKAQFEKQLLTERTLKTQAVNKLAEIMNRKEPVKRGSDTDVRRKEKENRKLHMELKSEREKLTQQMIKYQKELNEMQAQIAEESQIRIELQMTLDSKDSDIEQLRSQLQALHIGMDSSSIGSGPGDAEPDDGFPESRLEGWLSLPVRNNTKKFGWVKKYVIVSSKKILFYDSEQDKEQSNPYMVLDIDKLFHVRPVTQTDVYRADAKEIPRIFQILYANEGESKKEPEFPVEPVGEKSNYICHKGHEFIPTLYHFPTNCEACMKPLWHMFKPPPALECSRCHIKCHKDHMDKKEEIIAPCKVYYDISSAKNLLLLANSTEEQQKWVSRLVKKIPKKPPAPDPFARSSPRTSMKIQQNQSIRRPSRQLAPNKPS
Chain of Serine/threonine-protein kinase Nek6 (Homo sapiens) (Q9HC98 whole entry): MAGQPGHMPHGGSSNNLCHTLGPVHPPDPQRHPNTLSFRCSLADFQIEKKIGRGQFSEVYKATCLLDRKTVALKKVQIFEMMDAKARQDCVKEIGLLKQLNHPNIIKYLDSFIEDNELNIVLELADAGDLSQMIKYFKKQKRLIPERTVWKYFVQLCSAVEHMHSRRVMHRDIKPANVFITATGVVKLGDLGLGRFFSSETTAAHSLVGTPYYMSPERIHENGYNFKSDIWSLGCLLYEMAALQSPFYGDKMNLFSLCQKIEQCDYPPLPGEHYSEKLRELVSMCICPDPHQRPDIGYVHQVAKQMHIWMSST
Chain of MAP kinase-activated protein kinase 2 (Homo sapiens) (P49137 whole entry, looked up): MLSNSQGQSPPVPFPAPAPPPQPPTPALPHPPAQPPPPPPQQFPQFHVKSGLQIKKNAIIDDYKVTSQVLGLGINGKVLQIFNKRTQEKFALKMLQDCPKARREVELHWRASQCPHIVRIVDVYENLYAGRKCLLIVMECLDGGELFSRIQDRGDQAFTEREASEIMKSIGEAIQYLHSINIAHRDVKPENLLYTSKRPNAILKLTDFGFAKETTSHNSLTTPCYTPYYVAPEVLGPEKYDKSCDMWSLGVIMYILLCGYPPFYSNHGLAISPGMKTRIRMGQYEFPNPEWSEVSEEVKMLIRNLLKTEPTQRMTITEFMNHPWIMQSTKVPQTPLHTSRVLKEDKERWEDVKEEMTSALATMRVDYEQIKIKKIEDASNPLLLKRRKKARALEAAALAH
Chain of Serine/threonine-protein kinase pim-2 (Homo sapiens) (Q9P1W9 whole entry, looked up): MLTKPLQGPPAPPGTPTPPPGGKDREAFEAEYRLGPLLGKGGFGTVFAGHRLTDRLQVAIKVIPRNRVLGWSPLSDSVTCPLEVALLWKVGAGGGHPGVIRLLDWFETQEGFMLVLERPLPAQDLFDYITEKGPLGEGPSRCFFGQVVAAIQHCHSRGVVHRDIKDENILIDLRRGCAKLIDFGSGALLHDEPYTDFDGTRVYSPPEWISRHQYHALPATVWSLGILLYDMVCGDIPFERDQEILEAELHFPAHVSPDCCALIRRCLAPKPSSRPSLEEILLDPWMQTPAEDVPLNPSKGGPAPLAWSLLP
Chain of Mitogen-activated protein kinase 1 (Homo sapiens) (P28482 whole entry): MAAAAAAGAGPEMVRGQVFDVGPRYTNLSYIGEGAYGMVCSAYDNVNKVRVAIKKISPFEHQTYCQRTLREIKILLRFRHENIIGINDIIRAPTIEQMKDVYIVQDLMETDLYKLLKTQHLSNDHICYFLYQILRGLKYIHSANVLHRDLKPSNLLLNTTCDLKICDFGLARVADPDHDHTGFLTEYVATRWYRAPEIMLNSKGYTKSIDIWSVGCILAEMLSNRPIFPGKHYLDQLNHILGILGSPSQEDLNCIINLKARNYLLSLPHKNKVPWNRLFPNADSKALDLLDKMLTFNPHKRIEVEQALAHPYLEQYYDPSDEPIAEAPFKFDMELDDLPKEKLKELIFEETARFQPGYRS

Row | SMILES | Activity (A-375 [1]) [%] | Activity (A-375 [2]) [%] | Activity (A-375 [3]) [%] | Activity [4] [%] | Activity [5] [%] | Activity [6] [%] | Activity [7] [%] | Activity [8] [%] | Activity [9] [%] | Activity [10] [%] | Activity [11] [%] | Activity [12] [%] | Activity (Homo sapiens) [%] | Activity [13] [%] | Activity [14] [%]
1 | CC(=O)Nc1cccc(-c2cnc3[nH]nc(C)c3c2)c1 | 37.3 | 11.6 | 5.36 | 94.5 | 120 | 79 | 63.8 | 91.7 | 93.3 | 55.9 | 58.7 | 94.3 | 54.5 | 105 | 15.8
2 | CCCC(=O)Nc1n[nH]c2ncc(-c3cccnc3)cc12 | – | – | – | 82 | 84 | – | – | – | 97 | 104 | 111 | 90 | – | 108 | –
3 | CC(=O)Nc1nccc(-c2c(-c3ccccc3)noc2C)n1 | 16.2 | 21.9 | 58.5 | 82.4 | 93.7 | 119 | 94.7 | 106 | 67 | 98.7 | 92.3 | 78.8 | 79.5 | 57.5 | 89.5
